The text below walks through data of patent publication US20100184809A1, “Heterocyclic FXR Binding Compounds” (PHENEX PHARMACEUTICALS AG, priority 2006, published 2010).

Data set [1] in a line: Aqueous solubility assay, Protocol A, nephelometry method. Format: physicochemical. As to conditions: PBS with 5% DMSO, aqueous with cosolvent or surfactant or cyclodextrin, kinetic from dmso stock, PBS pH 7.4, 5% DMSO, 23° C., 24 hours, read-out: Aqueous solubility pH 7.4. The protocol:
Aqueous solubility of compounds was determined by nephelometry or by the shake-flask method as follows:
Protocol A, nephelometry method:
Solubility of compounds was measured in PBS (pH 7.4), 5% DMSO at 23° C. Nepheloskan Ascent (Thermo Electron Corporation) nephelometer was used for measurement of light scattering. Tested compounds were dissolved in DMSO to 10 mM. Prior to measurement the compounds were further diluted with PBS in the wells to final compound concentrations of 100, 70, 50, 35, 25, 17, 12 and <10 μg/ml.
The plates were incubated at room temperature for 24 hours to reach equilibrium and the scattered light was measured. Assay validation: Aqueous solubility of acetylsalicylic acid was determined to validate the assay.
The following compounds of Table 2 exemplify such solubility with “−−” meaning solubility<2 μM, “+” meaning 2 μM solubility 100 μM and “++” meaning solubility

Data set [2] in a line: Plasma protein binding assay (equilibrium dialysis). The class given is in vitro ADME. As to conditions: 37° C., extrapolated fraction unbound. The protocol:
Equilibrium dialysis is used to determine the extent of binding of a compound to plasma proteins. A semi-permeable membrane separates a protein-containing compartment from a protein-free compartment. The system is allowed to equilibrate at 37° C. The test compound present in each compartment is quantified by LC-MS/MS. The extent of binding is reported as a fraction unbound (fu) value which is calculated as fu=1−(PC−PF)/PC. PC=Test compound concentration in protein-containing compartment. PF=Test compound concentration in protein-free compartment. In addition to using whole plasma, the plasma protein binding assay can be performed using two other ratios of plasma (10% or 50% plasma in buffer v/v). The following equations are used to convert from a fraction unbound at 10% or 50% to a fraction unbound at 100%: […]

Data set [3] addresses T1, human FXRalpha ligand binding domain (LBD) (Homo sapiens, UniProt Q96RI1).
T1 construct: made in house; host or cells: E. coli BL21(DE3), vector pDEST15
T1 sequence (Q96RI1 187-472 isoform Q96RI1-2): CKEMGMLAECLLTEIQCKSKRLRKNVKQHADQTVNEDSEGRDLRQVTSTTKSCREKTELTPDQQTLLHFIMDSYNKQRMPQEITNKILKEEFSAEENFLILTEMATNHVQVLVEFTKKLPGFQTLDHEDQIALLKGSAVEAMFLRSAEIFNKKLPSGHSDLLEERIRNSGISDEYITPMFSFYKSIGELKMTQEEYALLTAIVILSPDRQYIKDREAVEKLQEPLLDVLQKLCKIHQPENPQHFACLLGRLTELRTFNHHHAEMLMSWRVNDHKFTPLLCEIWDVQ
Briefly: FRET activity assay (ligand mediated cofactor peptide interaction, LANCE). The class given is biochemical. As to conditions: GST-FXR-LBD / biotinylated SRC-1 peptide (676-700). The protocol:
Determination of a ligand mediated cofactor peptide interaction to quantify ligand binding to the nuclear receptor Farnesoid X Receptor (FXR) was performed as follows:
Preparation of human farnesoid X receptor (FXR) alpha ligand binding domain: The human FXRalpha ligand binding domain (LBD) was expressed in E. coli strain BL21(DE3) as an N-terminally glutathione-[…] (GST) tagged fusion protein. The DNA encoding the FXR ligand binding domain was cloned into vector pDEST15 (Invitrogen). Expression was under control of an IPTG inducible T7 promoter. The amino acid boundaries of the ligand binding domain were amino acids 187-472 of Database entry NM_005123 (RefSeq). Expression and purification of the FXR-LBD: An overnight preculture of a transformed E. coli strain was diluted 1:20 in LB-Ampicillin medium and grown at 30° C. to an optical density of OD600=0.4-0.6. Gene expression was then induced by addition of 0.5 mM IPTG. Cells were incubated an additional 6 h at 30° C., 180 rpm. Cells were collected by centrifugation (7000×g, 7 min, room temperature). Per liter of original cell culture, cells were resuspended in 10 ml lysis buffer (50 mM Glucose, 50 mM Tris pH 7.9, 1 mM EDTA and 4 mg/ml lysozyme) and left on ice for 30 min. Cells were then subjected to sonication and cell debris removed via centrifugation (22000×g, 30 min, 4° C.). Per 10 ml of supernatant 0.5 ml prewashed Glutathione 4B sepharose slurry (Qiagen) was added and the suspension kept slowly rotating for 1 h at 4° C. Glutathione 4B sepharose beads were pelleted by centrifugation (2000 g, 15 sec, 4° C.) and washed twice in wash buffer (25 mM Tris, 50 mM KCl, 4 mM MgCl2 and 1M NaCl). The pellet was resuspended in 3 ml elution buffer per liter of original culture (elution buffer: 20 mM Tris, 60 mM KCl, 5 mM MgCl2 and 80 mM glutathione added immediately prior to use as powder). The suspension was left rotating for 15 min at 4° C., the beads pelleted and eluted again with half the volume of elution buffer than the first time. The eluates were pooled and dialysed overnight in 20 mM Hepes buffer (pH 7.5) containing 60 mM KCl, 5 mM MgCl2 as well as 1 mM dithiothreitol and 10% (v/v) glycerol. The protein was analysed by SDS-Page.
The method measures the ability of putative ligands to modulate the interaction between the purified bacterial expressed FXR ligand binding domain (LBD) and a synthetic biotinylated peptide based on residues 676-700 of SRC-1 (LCD2, 676-700). The sequence of the peptide used was B-[…]-COOH where the N-terminus was biotinylated (B). The ligand binding domain (LBD) of FXR was expressed as fusion protein with GST in BL-21 cells using the vector pDEST15. Cells were lysed by sonication, and the fusion proteins purified over glutathione sepharose (Pharmacia) according to the manufacturers instructions. For screening of compounds for their influence on the FXR-peptide interaction, the Perkin Elmer LANCE technology was applied. This method relies on the binding dependent energy transfer from a donor to an acceptor fluorophor attached to the binding partner of interest. For ease of handling and reduction of background from compound fluorescence LANCE technology makes use of generic fluorophore labels and time resolved detection Assays were done in a final volume of 2 5 μl in a 384 well plate, in a Tris-based buffer (20 mM Tris-HCl pH 7,5; 60 mM KCl, 5 mM MgCl2; 35 ng/μl BSA), containing 20-60 ng/well recombinantly expressed FXR-LBD fused to GST, 200-600 nM N-terminally biotinylated peptide, representing SRC1 aminoacids 676-700, 200 ng/well Streptavidin-xIAPC conjugate(Prozyme) and 6-10 ng/well Eu W1024 antiGST (Perkin Elmer). DMSO content of the samples was kept at 1%. After generation of the assay mix and diluting the potentially FXR modulating ligands, the assay was equilibrated for one hour in the dark at room temperature in FIA-plates black 384 well (Greiner). […]
(In general: In TR-FRET formats the signal depends on donor and acceptor labels being close together.)

Data set [4] in a line: Caco-2 permeability. Format: in vitro ADME. Conditions: human, apical to basolateral. The protocol: Caco-2 cells are widely used as an in vitro model for predicting human drug absorption. The Caco-2 cell line is derived from a human colorectal carcinoma, and when cultured, the cells spontaneously differentiate into monolayers of polarised enterocytes. The cells are seeded on Transwell™ plates and form a confluent monolayer over 20 days prior to the experiment. On day 20, the test compound is added to the apical side of the membrane and the transport of the compound across the monolayer is monitored over a 2 hour time period. To study drug efflux, it is also necessary to investigate transport of the compound from the basolateral compartment to the apical compartment. The permeability coefficient (Papp) is calculated from the following equation: […]
Where dQ/dt is the rate of permeation of the drug across the cells, CO is the donor compartment concentration at time zero and A is the area of the cell monolayer.
(In general: Caco-2 monolayers are a common model of the intestinal barrier.)

Data set [5] can be described thus: Rat hepatocyte stability assay. Format: in vitro ADME. Conditions: hepatocytes, 37° C., 60 minute, read-out: Rat hepatocyte clearance. Here is the method: Compound stability towards rat hepatocytes was determined as follows: The hepatocytes are incubated with the test compound at 37° C. Samples are removed at the appropriate time points into methanol to terminate the reaction. Following centrifugation, the supernatant is analysed by LC-MS/MS. The disappearance of test compound is monitored over a 60 minute time period. The In peak area ratio (compound peak area/internal standard peak area) is plotted against time and the gradient of the line determined. Finally, half life t1/2 and Intrinsic clearance CLint is computed by the following equations: elimination rate konstant (k)=−gradient; t1/2 (min)=0.693/k; V (μl/10^6 cells)=volume of incubation (μl)/number of cells (*10^6); CLint (μl/min/10^6cells protein)=V*0.693/t1/2.

A short description of data set [6]: Rat microsomal stability assay. The class given is in vitro ADME. Conditions: liver microsomes, 37° C., NADPH, 45 minute, read-out: Rat liver microsome clearance. The protocol: Compound stability towards rat liver microsomes was determined as follows: The microsomes are incubated with the test compound at 37° C. in the presence of the co-factor, NADPH, which initiates the reaction. The reaction is terminated by the addition of methanol. Following centrifugation, the supernatant is analysed on the LC-MS/MS. The disappearance of test compound is monitored over a 45 minute time period. The In peak area ratio (compound peak area/internal standard peak area) is plotted against time and the gradient of the line determined. Finally, Intrinsic clearance CLint is computed by the following equations: elimination rate konstant (k)=−gradient; t1/2 (min)=0.693/k; V (μl/mg)=volume of incubation (μl)/protein in incubation (mg); CLint (μl/min/mg protein)=V*0.693/t1/2.

The nature of data set [7]: Aqueous solubility assay, Protocol B, shake-flask method. Conditions: aqueous buffer, 10 mM PBS buffer pH 7.4, 1% MeOH, room temperature, read-out: Aqueous solubility pH 7.4 (μM) (±standard deviation), shake-flask method. Format: physicochemical. Here is the method:
Protocol B, shake-flask method:
Sample preparation: Sample and standard solution preparation is performed by mixing equal volumes of acetonitrile containing the internal standard (1 μM final concentration) with sample and calibration standard solutions (100 μl). After vigorously shaking (10 seconds) the samples are centrifuged (6000 g) for 5 minutes at 20° C. Aliquots of the particle-free supernatants are transferred to 200 μl sample vials and subsequently subjected to LC-MS/MS. Assay procedure: Test concentration was 100 μM in 10 mM PBS buffer pH 7.4 with a final MeOH concentration of 1%. The volume of the incubation solution was 500 μl. Depending on each compound's solubility in MeOH, the stock concentration and the incubation concentration was adapted. The test solutions in quadruplicates were shaken at 300 rpm over a 20 hours period at room temperature, followed by centrifugation at 20000 g for 30 minutes to separate the solid phase. 100 μl of particle free sample are added to 100 μl acetonitrile containing the internal standard. The aqueous solubility of the compounds was determined by measuring the concentration of the PBS buffer supernatant by HPLC-MS/MS.

Structures are written as SMILES. ≈ marks a conversion by molar mass, not a printed value.

As a reminder, the solubility is the dissolved amount per volume that the medium holds. What is called fraction unbound is free concentration divided by total concentration. The IC50 is the midpoint of a concentration-inhibition curve. The low end stands for higher potency, the high end for lower potency. For orientation: Papp A→B means how fast a substance crosses the layer from the apical side. High values mean ready permeation, low ones poor permeation. With `CC(C)c1onc(-c2c(Cl)cccc2Cl)c1COc1ccc(NC(=O)c2ccc(C(=O)O)cc2)c(C(F)(F)F)n1` [Example 6, N-{6-[3-(2,6-dichloro-phenyl)-5-isopropyl-isoxazol-4-ylmethoxy]-2-trifluoromethyl-pyridin-3-yl}-terephthalamic acid], the solubility at 24 h in data set [1] is more than 100 µM. The fraction unbound in data set [2] is 0.0005. The compound also yielded an IC50 in data set [3] not above 1000 nM. The compound further gave an apical-to-basolateral permeability (Papp A→B) at 2 h in data set [4] of 34 ×10⁻⁶ cm/s.
The melting point is the temperature of the solid-liquid transition. On to `CC(C)c1onc(-c2c(Cl)cccc2Cl)c1COc1ccc(N(C)C(=O)c2ccc(C(=O)N(C)C)cc2)c(C(F)(F)F)n1` [Example 24], for which the melting point lay within 166.8 to 167.8 °C. Also, the fraction unbound in data set [2] was 0.0009. The same compound showed an IC50 in data set [3] not above 1000 nM. In data set [4], this compound came in with an apparent permeability from apical to basolateral (Papp A→B) at 2 h of 46 ×10⁻⁶ cm/s.
As for `CC(C)c1onc(-c2c(Cl)cccc2Cl)c1COc1ccc(N(C)C(=O)c2ccc(-c3nnn[nH]3)cc2)c(C(F)(F)F)n1` [Example 25, N-(6-((3-(2,6-Dichlorophenyl)-5-isopropylisoxazol-4-yl)methoxy)-2-(trifluoromethyl)pyridin-3-yl)-N-methyl-4-(1H-tetrazol-5-yl)benzamide], in data set [5], the hepatocyte CLint came out at 2.5 µL/min/1e6 cells. Further, in data set [6], the microsomal CLint stood at 169 µL/min/mg. Also, the free fraction (fraction unbound) in data set [2] was 0.0004. The same compound showed an IC50 in data set [3] not above 1000 nM.
`CC(C)c1onc(-c2c(Cl)cccc2Cl)c1COc1cnc(N(C)Cc2cccc(C(=O)O)c2)c(Cl)c1` [Example 32, 3-(((3-Chloro-5-((3-(2,6-dichlorophenyl)-5-isopropylisoxazol-4-yl)methoxy)pyridin-2-yl)(methyl)amino)methyl)benzoic acid]: the solubility at 20 h in data set [7] was determined as 129 µM (≈ 72.4 µg/mL). In data set [3], this compound showed an IC50 not above 1000 nM.
